This is an account of results in publication PMC4886168, “Effects of solid‐phase extraction of plasma in measuring gut metabolic hormones in fasted and fed blood of lean and diet‐induced obese rats” (Physiological Reports, 2016).

Data set [1] in a line: Plasma peptide levels during IV infusion of anorexigenic doses in lean rats. As to the method: Leptin doses bracketed the minimal effective dose (1100 ng/kg/min) for reducing food intake in lean rats (Reidelberger et al. 2012). Approximately 45 min after infusion onset, and while the infusion continued, rats were anesthetized with isoflurane (3%), and blood samples (~3 mL) were obtained by cardiac puncture. Samples were immediately transferred to 4 mL EDTA tubes on ice containing 40 μL of a mixture of 0.9 mL DPP4 inhibitor, 0.1 mL Protease Inhibitor Cocktail, and 0.1 g AEBSF. Plasma was obtained by centrifugation within 30 min of sample collection and stored at −70°C until solid‐phase extraction of samples followed by the multiplex assay. Infusions were administered using a syringe infusion pump (Harvard Apparatus, South Natick, MA). At the end of the experiment, data from a rat were excluded if its jugular vein catheter was not patent. A catheter was deemed patent if the rat lost consciousness within 10 sec of a bolus injection of the short‐acting anesthetic brevital into the catheter.
Plasma samples were extracted using procedures similar to those described previously (Dai et al. 2008). Briefly, an OASIS HLB LP (60 mg) 96‐well extraction plate (Waters Corp., Milford, MA) was prepared by passing 1 mL acetonitrile twice through each well, followed by 3, 1 mL washes of 1% trifluoroacetic acid (TFA; 1:100 water [vol/vol]). Flows through the wells were facilitated using a Waters vacuum manifold (5 inch Hg). Plasma (1 mL) was then added to each well; 10 min later, flows were facilitated using vacuum. Wells were then washed three times with 1 mL 1% TFA (facilitated using vacuum). Extracts were eluted into individual tubes by adding 1 mL of 1% TFA, 60% acetonitrile in water (vol/vol) to each well; 10 min later, flows were facilitated using vacuum. Samples of each extract (0.9 mL) were frozen, and then lyophilized to dryness. At time of assay, dried extracts for each sample were dissolved with 0.45 mL of assay buffer, producing a twofold higher concentration for eluted plasma components.
The multiplex assay employed a BioTek ELx405 plate washer fitted with a magnetic holder, and a Luminex 200 analyzer. […] Initial assays compared peptide standards used in the multiplex assay with those used in the individual ELIAs: multiplex assay standards were included in the individual ELIAs, and standards from the ELIAs were included in the multiplex assay.
In experiments examining the effects of solid‐phase extraction of plasma samples on specific recoveries of the seven peptides added to lean and obese plasma, measured peptide concentrations in each plasma sample were plotted against expected concentrations (after subtracting plasma alone values), and linear regression analyses were performed. […] Planned comparisons of treatment means were evaluated by t‐tests or paired t‐tests. […]

The subject of the next data set is food intake in lean rats. Conditions: cited from earlier work; for ED50 dose for reducing food intake: 3-h IV infusion, ref Reidelberger et al. 2001, Chelikani et al. 2005a,b.
The conditions of data set [2]: rats, amylin 15 ng/kg/min IV; solid-phase extraction of plasma, amylin radioimmunoassay; ref Arnelo et al. 1998; cited from earlier work. An excerpt:
With respect to the pancreatic hormone amylin, we previously provided evidence that postprandial plasma levels of amylin are not quite sufficient to inhibit food intake in rats by an endocrine mechanism (Arnelo et al. 1998). […] Here, we provide evidence using solid‐phase extraction of plasma and the multiplex assay for active amylin that a large chow meal in ...

Values joined by “and” are separate entries in the source; they are usually repeats but may differ in a detail not shown here. Equal entries are not always repeated.

As to `CC[C@H](C)[C@H](NC(=O)[C@H](Cc1ccccc1)NC(=O)[C@H](CCC(=O)O)NC(=O)[C@H](CCCCN)NC(=O)[C@H](C)NC(=O)[C@H](C)NC(=O)[C@H](CCC(N)=O)NC(=O)CNC(=O)[C@H](CCC(=O)O)NC(=O)[C@H](CC(C)C)NC(=O)[C@H](Cc1ccc(O)cc1)NC(=O)[C@H](CO)NC(=O)[C@H](CO)NC(=O)[C@@H](NC(=O)[C@H](CC(=O)O)NC(=O)[C@H](CO)NC(=O)[C@@H](NC(=O)[C@H](Cc1ccccc1)NC(=O)[C@@H](NC(=O)CNC(=O)[C@H](CCC(=O)O)NC(=O)[C@H](C)NC(=O)[C@@H](N)Cc1c[nH]cn1)[C@@H](C)O)[C@@H](C)O)C(C)C)C(=O)N[C@@H](C)C(=O)N[C@@H](Cc1c[nH]c2ccccc12)C(=O)N[C@@H](CC(C)C)C(=O)N[C@H](C(=O)N[C@@H](CCCCN)C(=O)NCC(=O)N[C@@H](CCCNC(=N)N)C(N)=O)C(C)C` [GLP‐1, Glucagon‐like peptide‐1], in data set [1] (lean rats, 45 min IV infusion, three dose levels incl. 0, extracted plasma, multiplex assay, multiplex standards as reference), the “best-fit linear regression equation, Y plasma peptide concentration (pg/mL), X peptide dose (ng/kg/min)” value is recorded as 37 + 75X pg/mL. Also, in data set [1] (lean rats, IV ~ED50 doses (56, 68, 39 ng/kg/min) vs postprandial level 30 min after meal onset, ELIA standards as reference), the “plasma level at ~ED50 dose relative to that produced by the large meal” value was 30–60 fold and 30 fold. In addition, the “predicted plasma active GLP-1 level at minimal anorexigenic dose” value in data set [1] (regression prediction for GLP-1 1.6 ng/kg/min IV, dose not administered here, [95% CI]) was 53 [−400, 510] pg/mL. In addition, in the data set with food intake in lean rats (lean rats), the “ED50 dose for reducing food intake” value is reported as 76 ng/kg/min. The “effect on food intake” value in the data set on food intake in lean rats (rats, IV infusion of GLP-1 at 33 ng/kg/min, ref Chelikani et al. 2005b) was “sufficient to decrease food intake”.

With `CC(C)C[C@H](NC(=O)[C@H](CC(N)=O)NC(=O)[C@H](CC(N)=O)NC(=O)[C@H](CO)NC(=O)[C@H](CO)NC(=O)[C@H](CCCNC(=N)N)NC(=O)[C@@H](NC(=O)[C@H](CC(C)C)NC(=O)[C@H](Cc1ccccc1)NC(=O)[C@H](CC(N)=O)NC(=O)[C@H](C)NC(=O)[C@H](CC(C)C)NC(=O)[C@H](CCCNC(=N)N)NC(=O)[C@H](CCC(N)=O)NC(=O)[C@@H](NC(=O)[C@H](C)NC(=O)[C@@H]1CSSC[C@H](NC(=O)[C@@H](N)CCCCN)C(=O)N[C@@H](CC(N)=O)C(=O)N[C@@H]([C@@H](C)O)C(=O)N[C@@H](C)C(=O)N[C@@H]([C@@H](C)O)C(=O)N1)[C@@H](C)O)C(C)C)C(=O)NCC(=O)N1CCC[C@H]1C(=O)N[C@H](C(=O)N[C@@H](CC(C)C)C(=O)N1CCC[C@H]1C(=O)N1CCC[C@H]1C(=O)N[C@H](C(=O)N[C@@H](CC(N)=O)C(=O)N[C@H](C(=O)NCC(=O)N[C@@H](CO)C(=O)N[C@@H](CC(N)=O)C(=O)N[C@H](C(=O)N[C@@H](Cc1ccc(O)cc1)C(N)=O)[C@@H](C)O)C(C)C)[C@@H](C)O)C(C)C` [Amylin], in data set [1] (rat, in vivo, iv), the “predicted plasma active amylin level at minimal anorexigenic dose” value is 450 [−460, 1360] pg/mL. The “plasma amylin produced by anorexigenic IV dose” value in data set [2] is on record as 140 pg/mL. Besides, in the data set with food intake in lean rats (lean rats), the “ED50 dose for reducing food intake” value is recorded as 31 ng/kg/min.

B1: Leptin (protein, UniProt P41160 22-167, looked up)
Leptin: VPIQKVQDDTKTLIKTIVTRINDISHTQSVSAKQRVTGLDFIPGLHPILSLSKMDQTLAVYQQVLTSLPSQNVLQIANDLENLRDLLHLLAFSKSCSLPQTSGLQKPESLDGVLEASLYSTEVVALSRLQGSLQDILQQLDVSPEC
In the case of B1, in the data set with food intake in lean rats (lean rats, IV infusion of leptin, ref Reidelberger et al. 2012), the “minimal effective dose for reducing food intake” value is on record as 1100 ng/kg/min.
